Data on one substance can be found in US6030997A, “Acid labile prodrugs” (priority 1998, dated 2000).

In one data set the test system is BALB/c mice. Briefly: Toxicity of daily intravenous injections in BALB/c mice (proteinuria by Dipstick, mortality, gross pathology). Type of data set: in vivo, mouse (BALB/c). Conditions: day 3, Gentamicin 75 mg/kg i.v. daily.
In a further data set the test system is Fisher 344 rats. Briefly: 7-day once daily repeated intravenous toxicity in Fisher 344 rats: clinical signs, mortality, body weight, necropsy. Type of data set: in vivo, rat (Fisher 344). The note with it: i.v. once daily 7 days, ProGenta equimolar to 60 mg/kg Gentamicin or Gentamicin 60 mg/kg; particularly females; especially striking Day 10.
Another data set has as its system kidney. The note with it: rat, in vivo.
For the next data set, the system named is mice. The note with it: i.v.; cited from earlier work.

Procedure for Fisher 344 rats: All animals received 10 mg/liter of sodium bicarbonate in drinking water. All animals were allowed an additional 3-day recovery period. Final assessment of treatment effects was based on monitoring clinical signs, determinations of body weight, serum creatinine levels and urinary protein content. In addition, all animals were subjected to necropsy at termination of the study.
Procedure for kidney: 3.1 The potential intravenous toxicity of the test article ProGenta (in a dose equimolar to 60 mg/kg of Gentamicin, Example 1) following once daily repeated intravenous administrations during 7 days, was studied in a group of seven male and seven female Fisher 344 rats, in comparison to an identically treated and equally sized group treated with the control article Gentamicin (60 mg/kg), and an untreated control group comprising six male and six female rats. All animals received 10 mg/liter of sodium bicarbonate in drinking water. All animals were allowed an additional 3-day recovery period. Final assessment of treatment effects was based on monitoring clinical signs, determinations of body weight, serum creatinine levels and urinary protein content. In addition, all animals were subjected to necropsy at termination of the study.

Take Gentamicin: the mortality result with BALB/c mice is recorded as “the two mice in the Gentamicin group died several hours after the injection”. Moreover, the weight gain entry in the data set with Fisher 344 rats is given as “a relative reduction in normally expected weight gain”. Also, in the data set on kidney, the proteinuria entry is reported as “reached a peak value” and the urinary protein content entry is reported as “markedly increased”. In addition, the LD50 in the data set on mice is 75 mg/kg.

A word on the LD50: it is the dose expected to kill half of the subjects tested.
